Test results: patent US20240368135A1 (VERTEX PHARMACEUTICALS INCORPORATED, priority 2021, published 2024)

What follows are compounds tested against human NaV 1.8 (Homo sapiens, UniProt Q9Y5Y9) (assay: E-VIPR assay detecting and measuring NaV inhibition properties). Conditions: HEK cells expressing truncated human NaV 1.8; no human serum; read-out: IC50 in the E-VIPR Assay.
Type: cell-based
Description: Sodium ion channels are voltage-dependent proteins that can be activated by inducing membrane voltage changes by applying electric fields. The electrical stimulation instrument and methods of use, referred to as E-VIPR, are described in International Publication No. WO 2002/008748 A3 and C.-J. Huang et al. Characterization of voltage-gated sodium channel blockers by electrical stimulation and fluorescence detection of membrane potential, 24 Nature Biotech. 439-46 (2006), both of which are incorporated by reference in their entirety. The instrument comprises a microtiter plate handler, an optical system for exciting the coumarin dye while simultaneously recording the coumarin and oxonol emissions, a waveform generator, a current- or voltage-controlled amplifier, and parallel electrode pairs that are inserted into assay plate wells. Under integrated computer control, this instrument passes user-programmed electrical stimulus protocols to cells within the wells of the microtiter plate.
16-20 hours prior to running the assay on E-VIPR, HEK cells expressing a truncated form of human NaV 1.8 with full channel activity were seeded into microtiter 384-well plates, pre-coated with matrigel, at a density of 25,000 cells per well. 2.5-5% KIR2.1 Bacmam virus was added to the final cell suspension before seeding into cell plates. HEK cells were grown in Dulbecco's Modified Eagle's Medium (DMEM) supplemented with 10% FBS (Fetal Bovine Serum, qualified; Sigma #F4135), 1% NEAA (Non-Essential Amino Acids, Gibco #11140), 1% HEPES (Gibco #15630), 1% Pen-Strep (Penicillin-Streptomycin; Gibco #15140) and 5 μg/ml Blasticidin (Gibco #R210-01). Cells were expanded in vented cap cell culture flasks, with 90-95% humidity and 5% CO2.
Human Serum (HS, Millipore #S1P1-01KL, or Sigma SLBR5469V and SLBR5470V as a 50%/50% mixture, for 25% assay final concentration) • Bath 1 Buffer: • Sodium Chloride 160 mM (9.35 g/L), Potassium Chloride, 4.5 mM (0.335 g/L), Glucose 10 mM (1.8 g/L), Magnesium Chloride (Anhydrous) 1 mM (0.095 g/L), Calcium Chloride 2 mM (0.222 g/L), HEPES 10 mM (2.38 g/L) in water. • Na/TMA C1 Bath 1 Buffer: • Sodium Chloride 96 mM (5.61 g/L), Potassium Chloride 4.5 mM (0.335 g/L), Tetramethylammonium (TMA)-Cl 64 mM (7.01 g/L), Glucose 10 mM (1.8 g/L), Magnesium Chloride (Anhydrous) 1 mM (0.095 g/L), Calcium Chloride 2 mM (0.222 g/L) HEPES 10 mM (2.38 g/L) in water. • Hexyl Dye Solution (2× concentration): • Bath 1 Buffer containing 0.5% P-cyclodextrin (made fresh prior to each use, Sigma #C4767), 8 μM CC2-DMPE and 2 μM DiSBAC6(3). The solution was made by adding 10% Pluronic F127 stock equal to combined volumes of CC2-DMPE and DiSBAC6(3). The order of preparation was first mix Pluronic and CC2-DMPE, then add DiSBAC6(3), then while vortexing add Bath 1/p-Cyclodextrin.
Compound Loading Buffer (2× concentration): Na/TMA C1 Bath1 Buffer containing HS (omitted in experiments run in the absence of human serum (HS)) 50%, VABSC-1 1 mM, BSA 0.2 mg/ml (in Bath-1), KCl 9 mM, DMSO 0.625%.
1) To reach the final concentration in each well, 375 nL of each compound was pre-spotted (in neat DMSO) into polypropylene compound plates at 240× desired final concentration from an intermediate stock concentration of 0.075 mM, in an 11 point dose response, 3-fold dilution, resulting in a top dose of 300 nM final concentration in the cell plate. Vehicle control (neat DMSO), and positive control (an established NaV1.8 inhibitor, 25 μM final in assay in DMSO) were added manually to the outermost columns of each plate respectively. The compound plate was backfilled with 45 μL per well of Compound Loading Buffer resulting in a 240 fold dilution of compound following a 1:1 transfer of compound into the cell plate (see Step 6). Final DMSO concentration for all wells in the assay was 0.625% (0.75% DMSO was supplemented to the Compound Loading Buffer for a final DMSO concentration of 0.625%). […]

Sequence of human NaV 1.8 (Q9Y5Y9 126-399 limits assumed): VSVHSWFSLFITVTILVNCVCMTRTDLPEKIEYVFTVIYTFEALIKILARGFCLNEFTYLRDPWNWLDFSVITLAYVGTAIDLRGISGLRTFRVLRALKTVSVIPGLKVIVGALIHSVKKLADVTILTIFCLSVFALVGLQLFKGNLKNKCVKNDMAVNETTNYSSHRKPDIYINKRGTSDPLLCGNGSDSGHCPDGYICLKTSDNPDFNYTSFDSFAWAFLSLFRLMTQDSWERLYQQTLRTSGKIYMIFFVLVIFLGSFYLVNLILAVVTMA
Sequence of human NaV 1.8 (Q9Y5Y9 660-890 limits assumed): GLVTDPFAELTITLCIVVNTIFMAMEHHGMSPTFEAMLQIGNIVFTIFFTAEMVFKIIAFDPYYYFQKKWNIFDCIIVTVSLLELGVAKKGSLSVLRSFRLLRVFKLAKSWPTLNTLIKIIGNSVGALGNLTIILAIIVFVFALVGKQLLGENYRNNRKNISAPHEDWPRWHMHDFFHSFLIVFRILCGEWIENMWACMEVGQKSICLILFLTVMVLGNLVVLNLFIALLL
Sequence of human NaV 1.8 (Q9Y5Y9 1148-1722 limits assumed): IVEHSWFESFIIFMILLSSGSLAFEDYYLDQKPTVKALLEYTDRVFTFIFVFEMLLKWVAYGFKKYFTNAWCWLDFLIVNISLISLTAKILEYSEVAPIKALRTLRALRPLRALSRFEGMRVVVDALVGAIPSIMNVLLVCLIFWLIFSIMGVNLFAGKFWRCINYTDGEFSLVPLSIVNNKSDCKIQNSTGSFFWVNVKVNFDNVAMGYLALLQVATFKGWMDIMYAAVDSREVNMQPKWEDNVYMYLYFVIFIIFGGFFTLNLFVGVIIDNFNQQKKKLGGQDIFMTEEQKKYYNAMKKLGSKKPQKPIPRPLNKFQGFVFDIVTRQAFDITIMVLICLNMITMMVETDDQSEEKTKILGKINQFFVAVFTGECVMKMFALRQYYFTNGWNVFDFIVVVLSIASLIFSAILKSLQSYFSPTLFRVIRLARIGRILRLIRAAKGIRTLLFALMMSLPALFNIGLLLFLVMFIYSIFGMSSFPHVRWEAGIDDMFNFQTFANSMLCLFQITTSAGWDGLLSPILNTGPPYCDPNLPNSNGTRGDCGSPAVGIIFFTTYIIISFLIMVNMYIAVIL

Row | SMILES | IC50
1 | CCOc1c([C@@H]2[C@@H](C(=O)Nc3ccn(C)c(=O)c3)O[C@](C)(C(F)(F)F)[C@@H]2C)ccc(F)c1F (stereo in doubt) [Compound 102, rel-(2S,3R,4R,5S)-3-(2-ethoxy-3,4-difluorophenyl)-4,5-dimethyl-N-(1-methyl-2-oxo-1,2-dihydropyridin-4-yl)-5-(trifluoromethyl)tetrahydrofuran-2-carboxamide] | ≥ 1000 nM
2 | COc1c([C@H]2[C@H](C(=O)Nc3cnc4c(c3)C(O)CC4)O[C@@](C)(C(F)(F)F)[C@H]2C)ccc(F)c1F (single isomer, unassigned) [Compound 434, rel-(2R*,3S*,4S*,5R*)-3-(3,4-difluoro-2-methoxyphenyl)-N-(5-hydroxy-6,7-dihydro-5H-cyclopenta[b]pyridin-3-yl)-4,5-dimethyl-5-(trifluoromethyl)tetrahydrofuran-2-carboxamide] | 100 to 1000 nM
3 | COc1c([C@@H]2C[C@](C)(C(F)(F)F)O[C@H]2C(=O)Nc2cn(S(C)(=O)=O)nc2C)ccc(F)c1F (stereo in doubt) [Compound 684, rel-(2R,3S,5R)-3-(3,4-difluoro-2-methoxyphenyl)-5-methyl-N-(3-methyl-1-(methylsulfonyl)-1H-pyrazol-4-yl)-5-(trifluoromethyl)tetrahydrofuran-2-carboxamide] | < 10 nM
4 | COc1c([C@H]2[C@H](C(=O)Nc3ccnc(-n4ccnc4C)c3)O[C@@](C)(C(F)(F)F)[C@H]2C)ccc(F)c1F [Compound 316, (2R,3S,4S,5R)-3-(3,4-difluoro-2-methoxyphenyl)-4,5-dimethyl-N-(2-(2-methyl-1H-imidazol-1-yl)pyridin-4-yl)-5-(trifluoromethyl)-tetrahydrofuran-2-carboxamide] | < 10 nM
5 | COc1c([C@H]2[C@H](C(=O)NCC3(c4ccccc4)CC3)O[C@@](C)(C(F)(F)F)[C@H]2C)ccc(F)c1F [Compound 305, (2R,3S,4S,5R)-3-(3,4-difluoro-2-methoxyphenyl)-4,5-dimethyl-N-((1-phenylcyclopropyl)methyl)-5-(trifluoromethyl)tetrahydrofuran-2-carboxamide] | ≥ 1000 nM
6 | COCCOc1c([C@H]2[C@H](C(=O)Nc3cnn(C(C)(C)CO)c3)O[C@@](C)(C(F)(F)F)[C@H]2C)ccc(F)c1F [Compound 582, (2R,3S,4S,5R)-3-(3,4-difluoro-2-(2-methoxyethoxy)phenyl)-N-(1-(1-hydroxy-2-methylpropan-2-yl)-1H-pyrazol-4-yl)-4,5-dimethyl-5-(trifluoromethyl)tetrahydrofuran-2-carboxamide] | 100 to 1000 nM
7 | CC(C)Oc1c(C2C(C(=O)Nc3cc(S(C)(=O)=O)ccn3)OC(C)(C(F)(F)F)C2C)ccc(F)c1F (stereo not shown) [Compound 115, 3-(3,4-difluoro-2-isopropoxy-phenyl)-4,5-dimethyl-N-(4-methylsulfonyl-2-pyridyl)-5-(trifluoromethyl)tetrahydrofuran-2-carboxamide] | ≥ 1000 nM
8 | COc1c(C2C(C(=O)Nc3ccn4nnnc4c3)OC(C)(C(F)(F)F)C2C)ccc(F)c1C (racemic) [Compound 132, 3-(4-fluoro-2-methoxy-3-methyl-phenyl)-4,5-dimethyl-N-(tetrazolo[1,5-a]pyridin-7-yl)-5-(trifluoromethyl)tetrahydrofuran-2-carboxamide] | < 10 nM
9 | COc1c([C@H]2[C@H](C(=O)NCCN3CCNC(=O)C3)O[C@@](C)(C(F)(F)F)[C@H]2C)ccc(F)c1F [Compound 302, (2R,3S,4S,5R)-3-(3,4-difluoro-2-methoxyphenyl)-4,5-dimethyl-N-(2-(3-oxopiperazin-1-yl)ethyl)-5-(trifluoromethyl)tetrahydrofuran-2-carboxamide] | ≥ 1000 nM
10 | COc1c([C@H]2[C@H](C(=O)Nc3ccnc(C(C)O)c3)O[C@@](C)(C(F)(F)F)[C@H]2C)ccc(F)c1F (single isomer, unassigned) [Compound 532] | < 10 nM
